Reference: the NIST ThermoML archive (doi:10.1021/je0342320)

Assay: xn = mol fraction of the nth substance listed
Conditions: Liquid, Vibrating tube method

CCCCCCCCCC [decane] + COC(=O)OC
mass density [kg/m3]
Conditions	100 kPa	10000 kPa	20000 kPa	30000 kPa	40000 kPa
308.15 K, x2 = 0.0676	–	–	–	748.49	–
308.15 K, x2 = 0.2303	–	–	–	774.52	–
308.15 K, x2 = 0.2934	–	–	–	786.53	–
308.15 K, x2 = 0.4055	–	–	–	810.51	–
308.15 K, x2 = 0.502	–	–	827.62	835.23	–
308.15 K, x2 = 0.5476	–	–	840.77	848.52	–
308.15 K, x2 = 0.5883	–	–	853.46	861.27	–
308.15 K, x2 = 0.665	–	–	880.05	888.01	–
308.15 K, x2 = 0.7101	–	–	898.05	906.21	–
308.15 K, x2 = 0.7993	–	–	937.83	946.02	–
308.15 K, x2 = 0.9062	–	–	998.48	1006.83	–
313.15 K, x2 = 0.0676	722.58	730.76	738.28	745.23	751.65
313.15 K, x2 = 0.2303	747.1	755.75	763.69	770.99	777.72
313.15 K, x2 = 0.2934	758.66	767.5	775.54	782.96	789.79
313.15 K, x2 = 0.4055	781.63	790.74	799.07	806.72	813.78
313.15 K, x2 = 0.502	805.45	814.81	823.33	831.19	838.42
313.15 K, x2 = 0.5476	818.21	827.67	836.31	844.29	851.66
313.15 K, x2 = 0.665	856.63	866.37	875.3	883.49	891.08
313.15 K, x2 = 0.7101	874	883.94	893.08	901.47	909.27
313.15 K, x2 = 0.7993	913.46	923.44	932.63	941.03	948.81
313.15 K, x2 = 0.9062	973.48	983.52	992.81	1001.36	1009.35
318.15 K, x2 = 0.0676	718.68	727.04	734.75	741.84	–
318.15 K, x2 = 0.2303	742.9	751.73	759.87	767.35	–
318.15 K, x2 = 0.2934	754.31	763.4	771.65	779.22	–
318.15 K, x2 = 0.4055	777.08	786.45	794.97	802.8	–
318.15 K, x2 = 0.502	800.57	810.24	819.01	827.05	–
318.15 K, x2 = 0.5476	813.18	822.96	831.86	840	–
318.15 K, x2 = 0.665	851.25	861.33	870.52	878.91	–
318.15 K, x2 = 0.7101	868.41	878.62	888.03	896.64	–
318.15 K, x2 = 0.7993	907.56	917.9	927.38	936.02	–
318.15 K, x2 = 0.9062	967.13	977.56	987.16	995.97	–
